Reference: ChEMBL document CHEMBL4765274, “The development of advanced structural framework as multi-target-directed ligands for the treatment of Alzheimer's disease” (Eur J Med Chem, 2020)
Activity calls are given as the source filed them. The rule behind the calls is not given here. Peptide text beside a SMILES is read from it. * marks the point of attachment. Cbz = O=C(OCc1ccccc1)*

Tests used:
Acetylcholinesterase [1] = target: T1, Acetylcholinesterase (Homo sapiens, UniProt P22303); experiment: Inhibition of AChE in human erythrocytes at 25 uM by Ellman's method relative to control; format: cell-based; settings: Erythrocyte
[2] = target: Cholinesterase (Equus caballus) (UniProt P81908); experiment: Inhibition of equine serum BChE at 25 uM by Ellman's method relative to control; format: cell-free
[3] = target: Acetylcholinesterase (Electrophorus electricus) (UniProt O42275); experiment: Inhibition of electric eel AChE at 25 uM by Ellman's method relative to control
[4] = Antioxidant activity assessed as trolox equivalent of AAPH radical scavenging activity measured every min for 4 hrs by ORAC-FL assay relative to trolox; format: functional
Cholinesterase [5] = target: T2, Cholinesterase (Homo sapiens, UniProt P06276); experiment: Inhibition of human serum BChE at 25 uM by Ellman's method relative to control; format: cell-free
[6] = Disaggregation of Cu2+ induced amyloid beta (1 to 42 residues) (unknown origin) aggregation at 25 uM by thioflavin-T fluorescence method relative to control
Homo sapiens = species on record: Homo sapiens; experiment: Inhibition of self-induced amyloid beta (1 to 42 residues) (unknown origin) aggregation at 25 uM by thioflavin T based fluorescence assay relative to control
[7] = Inhibition of Cu2+-induced amyloid beta (1 to 42 residues) (unknown origin) aggregation at 25 uM after 24 hrs by thioflavin-T fluorescence method relative to control
[8] = Effective permeability of compound at 100 ug/m by PAMPA-BBB assay; format: ADME; settings: read-out: Peff
[9] = Cytotoxicity against rat PC-12 cells assessed as cell viability at 100 uM after 48 hrs by MTT assay relative to control; format: cell-based; settings: read-out: Activity
SH-SY5Y [10] = experiment: Neuroprotective activity against amyloid beta (1 to 42 residues)-induced cytotoxicity in human SH-SY5Y cells assessed as increase in cell viability at 1 to 10 uM incubated for 48 hrs by MTT assay; format: functional, cell-based; settings: dose 1-10 µM
Cholinesterase [11] = target: T2, Cholinesterase; experiment: Inhibition of human serum BChE by Ellman's method; format: cell-free
Acetylcholinesterase [12] = target: T1, Acetylcholinesterase; experiment: Inhibition of AChE in human erythrocytes by Ellman's method; format: cell-based, Erythrocyte
PC-12 [13] = experiment: Neuroprotective activity against H2O2-induced cytotoxicity in rat PC-12 cells assessed as decrease in LDH activity at 1 to 10 uM preincubated for 2 hrs followed by H2O2 addition and measured after 24 hrs by LDH assay; format: functional, cell-based; settings: dose 1-10 µM, time 26.0 hrs
SH-SY5Y [14] = experiment: Cytotoxicity against human SH-SY5Y cells assessed as cell viability up to 100 uM after 48 hrs by MTT assay relative to control; format: cell-based
Cholinesterase [15] = target: Cholinesterase (Equus caballus, UniProt P81908); experiment: Inhibition of equine serum BChE by Ellman's method; format: cell-free
Acetylcholinesterase [16] = target: Acetylcholinesterase (Electrophorus electricus, UniProt O42275); experiment: Inhibition of electric eel AChE by Ellman's method
[17] = Selectivity index, ratio of IC50 for inhibition of equine serum BChE to IC50 for inhibition of electric eel AChE
[18] = Inhibition of self-induced amyloid beta (1 to 42 residues) (unknown origin) aggregation by thioflavin T based fluorescence assay; set-up: species or system Homo sapiens
PC-12 [19] = experiment: Cytotoxicity against rat PC-12 cells assessed as reduction in cell viability up to 100 uM after 48 hrs by MTT assay; format: cell-based; settings: pc-12, 48 h
PC-12 [20] = experiment: Neuroprotective activity against H2O2-induced cytotoxicity in rat PC-12 cells assessed as increase in cell viability preincubated for 2 hrs followed by H2O2 addition and measured after 24 hrs by MTT assay; format: functional, cell-based; settings: dose 1-10 µM, time 26.0 hrs
Cholinesterase [21] = target: T2, Cholinesterase; experiment: Inhibition of human serum BChE by Ellman's method relative to control; format: cell-free; set-up: concentration or dose not given beside the values; settings: concentration not given here
HT-22 [22] = experiment: Inhibition of ubiquitin-proteasome system in mouse HT-22 cells expressing YFP-CLI assessed as increase in GFP level at 0.5 uM after 24 hrs by flow cytometric analysis; format: cell-based
HT-22 [23] = experiment: Inhibition of ubiquitin-proteasome system in mouse HT-22 cells expressing YFP-CLI assessed as increase in GFP level at 0.5 uM after 24 hrs by fluorescence microscopic method; format: cell-based
Mus musculus = experiment: Antialzheimer activity in scopolamine-induced Kunming mouse model of memory impairment assessed as latency time at 5 mg/kg , po by step-down passive avoidance test (reference value: 125.65 sec); format: functional
Danio rerio = species on record: Danio rerio; experiment: Antialzheimer activity in Alcl3-induced zebra fish AD model assessed as increase in motility at 8 uM relative to control; format: functional

T2 sequence (P06276 whole entry, the tested form may be a part): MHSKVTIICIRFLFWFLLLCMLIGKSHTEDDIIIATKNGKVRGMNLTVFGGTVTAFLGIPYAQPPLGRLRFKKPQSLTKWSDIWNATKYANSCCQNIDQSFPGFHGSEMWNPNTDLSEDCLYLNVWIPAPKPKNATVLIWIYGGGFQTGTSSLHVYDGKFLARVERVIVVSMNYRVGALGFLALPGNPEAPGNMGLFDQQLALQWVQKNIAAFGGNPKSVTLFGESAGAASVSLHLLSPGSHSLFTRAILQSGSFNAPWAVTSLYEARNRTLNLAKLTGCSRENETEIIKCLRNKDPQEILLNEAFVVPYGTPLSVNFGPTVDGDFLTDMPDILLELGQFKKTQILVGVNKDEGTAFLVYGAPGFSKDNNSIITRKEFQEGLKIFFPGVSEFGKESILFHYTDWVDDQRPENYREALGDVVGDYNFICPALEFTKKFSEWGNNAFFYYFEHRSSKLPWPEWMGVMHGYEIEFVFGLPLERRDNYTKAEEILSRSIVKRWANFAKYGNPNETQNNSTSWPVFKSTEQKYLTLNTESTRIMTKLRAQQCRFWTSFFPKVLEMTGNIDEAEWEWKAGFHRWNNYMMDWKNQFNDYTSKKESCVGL
Chain of Cholinesterase (Equus caballus) (P81908 whole entry): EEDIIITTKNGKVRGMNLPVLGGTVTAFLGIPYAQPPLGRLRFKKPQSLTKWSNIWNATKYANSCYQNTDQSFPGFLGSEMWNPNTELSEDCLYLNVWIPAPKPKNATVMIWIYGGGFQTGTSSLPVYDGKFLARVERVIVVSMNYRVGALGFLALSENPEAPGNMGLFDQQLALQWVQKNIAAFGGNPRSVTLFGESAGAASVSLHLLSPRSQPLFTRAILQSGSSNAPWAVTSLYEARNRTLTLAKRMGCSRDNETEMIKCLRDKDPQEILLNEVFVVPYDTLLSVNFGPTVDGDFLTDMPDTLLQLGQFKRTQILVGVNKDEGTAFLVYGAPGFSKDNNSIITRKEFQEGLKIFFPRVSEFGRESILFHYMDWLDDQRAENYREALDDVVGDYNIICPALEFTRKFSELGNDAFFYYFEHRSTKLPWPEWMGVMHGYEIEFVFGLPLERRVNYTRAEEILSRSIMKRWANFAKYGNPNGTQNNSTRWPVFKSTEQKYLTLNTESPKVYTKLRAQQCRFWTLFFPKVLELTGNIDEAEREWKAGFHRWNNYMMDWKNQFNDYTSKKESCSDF
Chain of Cholinesterase (Equus caballus, UniProt P81908) (P81908 whole entry): as above
T1 sequence (P22303 whole entry): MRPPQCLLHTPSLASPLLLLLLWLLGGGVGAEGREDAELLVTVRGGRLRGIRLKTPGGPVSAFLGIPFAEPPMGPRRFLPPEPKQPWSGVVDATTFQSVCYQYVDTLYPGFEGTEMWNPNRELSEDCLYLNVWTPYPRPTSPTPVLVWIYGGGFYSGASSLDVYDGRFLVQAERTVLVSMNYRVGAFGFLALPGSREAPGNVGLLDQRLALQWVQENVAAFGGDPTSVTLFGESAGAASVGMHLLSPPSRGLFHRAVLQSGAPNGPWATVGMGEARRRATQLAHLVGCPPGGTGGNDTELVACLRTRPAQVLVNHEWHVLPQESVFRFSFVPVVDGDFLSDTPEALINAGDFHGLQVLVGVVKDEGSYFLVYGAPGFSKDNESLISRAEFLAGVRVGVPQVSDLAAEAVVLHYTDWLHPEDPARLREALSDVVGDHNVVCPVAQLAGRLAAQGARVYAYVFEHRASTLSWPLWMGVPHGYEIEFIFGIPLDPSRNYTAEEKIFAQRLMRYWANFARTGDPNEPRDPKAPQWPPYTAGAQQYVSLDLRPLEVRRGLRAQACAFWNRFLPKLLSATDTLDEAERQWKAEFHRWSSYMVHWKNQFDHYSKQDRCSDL
Chain of Acetylcholinesterase (Electrophorus electricus) (O42275 24-633 limits assumed): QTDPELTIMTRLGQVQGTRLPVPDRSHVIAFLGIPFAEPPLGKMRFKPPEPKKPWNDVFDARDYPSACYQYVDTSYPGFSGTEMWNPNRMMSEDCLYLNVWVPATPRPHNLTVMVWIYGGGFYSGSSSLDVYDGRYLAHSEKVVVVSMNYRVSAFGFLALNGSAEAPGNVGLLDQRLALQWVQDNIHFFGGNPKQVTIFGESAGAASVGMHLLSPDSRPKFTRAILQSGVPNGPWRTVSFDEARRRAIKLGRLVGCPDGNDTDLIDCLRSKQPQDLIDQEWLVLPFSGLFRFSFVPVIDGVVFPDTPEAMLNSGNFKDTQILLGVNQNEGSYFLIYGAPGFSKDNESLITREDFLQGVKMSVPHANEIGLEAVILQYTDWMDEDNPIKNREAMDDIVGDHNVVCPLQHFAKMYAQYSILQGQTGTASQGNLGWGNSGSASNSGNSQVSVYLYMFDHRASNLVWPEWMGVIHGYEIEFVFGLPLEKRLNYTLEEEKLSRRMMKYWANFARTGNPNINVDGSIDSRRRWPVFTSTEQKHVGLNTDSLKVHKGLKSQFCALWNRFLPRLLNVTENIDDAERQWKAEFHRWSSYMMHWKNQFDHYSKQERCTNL
Chain of Acetylcholinesterase (Electrophorus electricus, UniProt O42275) (O42275 whole entry): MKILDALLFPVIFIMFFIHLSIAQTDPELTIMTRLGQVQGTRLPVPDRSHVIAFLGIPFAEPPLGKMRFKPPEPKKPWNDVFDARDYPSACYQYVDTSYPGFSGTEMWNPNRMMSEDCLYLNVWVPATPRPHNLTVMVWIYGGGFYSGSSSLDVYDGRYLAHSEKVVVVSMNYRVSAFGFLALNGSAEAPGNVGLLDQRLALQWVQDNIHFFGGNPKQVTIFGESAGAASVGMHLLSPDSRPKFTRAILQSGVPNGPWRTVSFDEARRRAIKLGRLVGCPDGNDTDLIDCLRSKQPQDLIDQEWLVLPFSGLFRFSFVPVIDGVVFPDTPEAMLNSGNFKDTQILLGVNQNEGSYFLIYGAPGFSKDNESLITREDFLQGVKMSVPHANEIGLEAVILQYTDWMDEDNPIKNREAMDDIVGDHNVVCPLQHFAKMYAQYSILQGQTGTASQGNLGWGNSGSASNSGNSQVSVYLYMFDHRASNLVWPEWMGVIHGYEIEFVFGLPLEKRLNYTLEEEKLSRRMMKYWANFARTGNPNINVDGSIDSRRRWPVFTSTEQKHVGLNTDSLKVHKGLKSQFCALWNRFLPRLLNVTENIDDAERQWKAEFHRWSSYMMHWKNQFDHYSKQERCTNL

Compound	fold change (FC) [4]	IC50 (Cholinesterase [11]) [µM]	IC50 (Acetylcholinesterase [12]) [µM]	IC50 (Cholinesterase [15]) [µM]	IC50 (Acetylcholinesterase [16]) [µM]	Ratio IC50 [17]	other results
O=C1C[C@@H](c2ccc(O)cc2)Oc2cc(O)cc(O)c21	5.5						inhibition (Acetylcholinesterase [1]): < 5%; inhibition [2]: < 5%; inhibition [3]: < 5%; inhibition (Cholinesterase [5]): < 5%
COc1cc(/C=C/C(=O)CC(=O)/C=C/c2ccc(O)c(OC)c2)ccc1O							Activity [6]: 56.1%; inhibition (Homo sapiens): 43.7%; inhibition [7]: 53.6%
O=c1cc(-c2ccc(O)cc2)oc2cc(O)cc(O)c12 [APIGENIN]	6.1						inhibition (Acetylcholinesterase [1]): < 5%; Papp at 100 ug/m [8]: 15.7 ×10⁻⁶ cm/s; inhibition [2]: < 5%; inhibition [3]: < 5%; inhibition (Cholinesterase [5]): < 5%
CCN(CCCCOc1ccc(/C=C/C(=O)c2c(O)cc(OCCCCN(CC)Cc3ccccc3OC)cc2O)cc1)Cc1ccccc1OC	1.3	5.2	1.3	15.6	1.16	13.4	viability at 48 h, 100 µM [9]: 55.6%; Activity (SH-SY5Y [10]): Active; Activity (PC-12 [13]): Active; Activity (SH-SY5Y [14]): Toxic; IC50 ([18]; read-out: IC50): 3.7 µM
CCN(CCCCOc1ccc(C2CC(=O)c3c(O)cc(OCCCCN(CC)Cc4ccccc4OC)cc3O2)cc1)Cc1ccccc1OC (stereo not drawn)	1.3	15.6	4.3	21.9	5.3	4.1	Activity (SH-SY5Y [10]): Active; Activity (PC-12 [13]): Active; Activity (SH-SY5Y [14]): Non-Toxic; Activity (PC-12 [19]): Non-Toxic; Activity (PC-12 [20]): Dose-dependent effect; IC50 ([18]; read-out: IC50): 30.9 µM
O=C(C=Cc1ccccc1)c1ccccc1	2.6						inhibition (Acetylcholinesterase [1]): < 5%; inhibition [2]: < 5%; inhibition [3]: < 5%; inhibition (Cholinesterase [5]): < 5%
O=C(/C=C/c1ccc(OCCCCN2CCC(Cc3ccccc3)CC2)cc1)c1c(O)cc(OCCCCN2CCC(Cc3ccccc3)CC2)cc1O	1.1	9.4	11.9	46.1	16.3	2.8	
O=c1c(-c2ccc(OCCCCN3CCC(Cc4ccccc4)CC3)cc2)coc2cc(OCCCCN3CCC(Cc4ccccc4)CC3)cc(O)c12	1.2	11.9	7.3	31.8	7.2	4.4	
O=c1c(-c2ccc(OCCCCN3CCN(Cc4ccccc4)CC3)cc2)coc2cc(OCCCCN3CCN(Cc4ccccc4)CC3)cc(O)c12	1.8	26.4	25.1		19.8		inhibition (Cholinesterase [21]): 5.8%
O=c1c(-c2ccc(OCCCCN3CCc4ccccc4C3)cc2)coc2cc(OCCCCN3CCc4ccccc4C3)cc(O)c12	1.1	13.7	8.1	52.6	13.5	3.9	
O=c1c(-c2ccc(O)cc2)coc2cc(O)cc(O)c12	5.1						inhibition [2]: < 5%; inhibition (Cholinesterase [5]): < 5%
O=c1cc(-c2ccc(OCCCCN3CCN(Cc4ccccc4)CC3)cc2)oc2cc(OCCCCN3CCN(Cc4ccccc4)CC3)cc(O)c12	1.8	10.7	1	37.5	26.8	1.4	
O=C1CC(c2ccc(OCCCCN3CCN(Cc4ccccc4)CC3)cc2)Oc2cc(OCCCCN3CCN(Cc4ccccc4)CC3)cc(O)c21 (stereo not drawn)	1.7	21.4	18.7		11.6		inhibition (Cholinesterase [21]): 12.2%
CC1c2ccccc2CCN1CCCCOc1ccc(-c2coc3cc(OCCCCN4CCc5ccccc5C4C)cc(O)c3c2=O)cc1 (stereo not drawn)	1.3	12.4	5.3		1.8		inhibition (Cholinesterase [21]): 19%
O=C1CC(c2ccc(OCCCCN3CCc4ccccc4C3)cc2)Oc2cc(OCCCCN3CCc4ccccc4C3)cc(O)c21 (stereo not drawn)	1.2	20.1	13.2		16.8		inhibition (Cholinesterase [21]): 8.8%
O=C1CC(c2ccc(OCCCCN3CCC(Cc4ccccc4)CC3)cc2)Oc2cc(OCCCCN3CCC(Cc4ccccc4)CC3)cc(O)c21 (stereo not drawn)	0.98	18.7	7.6	7.5	8.1	0.93	
O=c1cc(-c2ccc(OCCCCN3CCc4ccccc4C3)cc2)oc2cc(OCCCCN3CCc4ccccc4C3)cc(O)c12	1.3	15.8	0.59	17.5	18.2	0.96	
O=C(/C=C/c1ccc(OCCCCN2CCCCC2)cc1)c1c(O)cc(OCCCCN2CCCCC2)cc1O	1.1	3.7	5.1	7.2	3.52	2	
O=C(/C=C/c1ccc(OCCCCN2CCCC2)cc1)c1c(O)cc(OCCCCN2CCCC2)cc1O	0.93	1.8	3.2	8.19	5.71	1.4	
CC(C)C[C@@H](C=O)NC(=O)[C@H](CC(C)C)NC(=O)[C@H](CC(C)C)NC(=O)OCc1ccccc1 (Cbz-Leu-Leu-Leu-aldehyde)							inhibition (HT-22 [22]): Active; inhibition (HT-22 [23]): Active
CCN(CCCCOc1ccc(-c2coc3cc(OCCCCN(CC)Cc4ccccc4)cc(O)c3c2=O)cc1)Cc1ccccc1	1.4	18.2	2.1		2.3		inhibition (Cholinesterase [21]): 12%
CCN(CC)CCCCOc1ccc(/C=C/C(=O)c2c(O)cc(OCCCCN(CC)CC)cc2O)cc1	0.9	8.3	4.7	30.8	6.24	4.9	
O=c1cc(-c2ccc(OCCCCN3CCC(Cc4ccccc4)CC3)cc2)oc2cc(OCCCCN3CCC(Cc4ccccc4)CC3)cc(O)c12	1.1	12.9	0.67	19.7	10.8	1.8	
O=c1c(-c2ccc(OCCCCN3CCCCC3)cc2)coc2cc(OCCCCN3CCCCC3)cc(O)c12	1.2	19.6	0.81	2.2	0.52	4.2	Activity (SH-SY5Y [10]): Active; Activity (PC-12 [13]): Active; Activity (SH-SY5Y [14]): Non-Toxic; Activity (PC-12 [19]): Non-Toxic; Activity (PC-12 [20]): Dose-dependent effect; IC50 ([18]; read-out: IC50): 19.6 µM
COc1cc2c(cc1OC)C(=O)C(CC1CCN(Cc3ccccc3)CC1)C2 (stereo not drawn) [DONEPEZIL]							Time (Mus musculus): 251.42 s; Activity (Danio rerio): 55%; IC50 [18]: Not Active; inhibition [7]: inactive
